According to patent publication US8952024B2, “Herbicidal pyrimidone derivatives” (E I du Pont de Nemours and Company, priority 2009, dated 2015):

Legend:
Assay type in all cases: in vivo
[1] = tested on: Surinam grass (Brachiaria decumbens); test: Test B pre-/postemergence plant response
How it was run: (§1)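 Each species received compound formulated in non-phytotoxic solvent with surfactant, either at planting into a loam and sand blend or as a foliar spray once plants reached 2 to 18 cm in peat-based medium. Plants stayed in the greenhouse 13 to 15 days before visual evaluation against controls, scored 0 (no effect) to 100 (complete control).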

soybean (Glycine max) = test: Test B pre-/postemergence plant response
How it was run: as §1

[2] = tested on: yellow nutsedge (Cyperus esculentus); test: Test B pre-/postemergence plant response
How it was run: as §1

[3] = tested on: velvetleaf (Abutilon theophrasti); test: Test B pre-/postemergence plant response
How it was run: as §1

[4] = tested on: blackgrass (Alopecurus myosuroides); test: Test B pre-/postemergence plant response
How it was run: as §1

[5] = tested on: johnsongrass (Sorghum halepense); test: Test B pre-/postemergence plant response
How it was run: as §1

[6] = tested on: bermudagrass (Cynodon dactylon); test: Test B pre-/postemergence plant response
How it was run: as §1

[7] = tested on: large crabgrass (Digitaria sanguinalis); test: Test B pre-/postemergence plant response
How it was run: as §1

wild oat (Avena fatua) = test: Test B pre-/postemergence plant response
How it was run: as §1

[8] = tested on: Italian ryegrass (Lolium multiflorum); test: Test B pre-/postemergence plant response
How it was run: as §1

[9] = tested on: woolly cupgrass (Eriochloa villosa); test: Test B pre-/postemergence plant response
How it was run: as §1

[10] = tested on: ragweed (common ragweed, Ambrosia elatior); test: Test B pre-/postemergence plant response
How it was run: as §1

[11] = tested on: lambsquarters (Chenopodium album); test: Test B pre-/postemergence plant response
How it was run: as §1

corn (Zea mays) = test: Test B pre-/postemergence plant response
How it was run: as §1

[12] = tested on: canarygrass (Phalaris minor); test: Test B postemergence plant response; settings: Postemergence
How it was run: (§2)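 Plants at the 1- to 4-leaf stage (2 to 18 cm tall), grown in pots of peat moss/vermiculite medium with wetting agent and starter nutrients, received postemergence applications of test chemicals. After 13 to 15 days in a greenhouse, injury was rated visually against untreated controls on a 0 (no effect) to 100 (complete control) scale.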

[13] = tested on: winter barley (Hordeum vulgare); test: Test B postemergence plant response; settings: Postemergence
How it was run: as §2

[14] = tested on: windgrass (Apera spica-venti); test: Test B postemergence plant response; settings: Postemergence, scale 0 (no effect) to 100 (complete control)
How it was run: as §2

[15] = tested on: chickweed (Stellaria media); test: Test B postemergence plant response; settings: Postemergence
How it was run: as §2

[16] = 250 g ai/ha, Preemergence, 0 to 100 scale
[17] = Postemergence, 62 g ai/ha, scale 0 (no effect) to 100 (complete control), 13 to 15 days
[18] = Postemergence, 125 g ai/ha, visual rating after 13 to 15 days, scale 0 (no effect) to 100 (complete control)
[19] = Preemergence, 31 g ai/ha, scale 0 to 100 (0 no effect, 100 complete control)
[20] = Preemergence, 125 g ai/ha, 0 to 100 scale
[21] = Postemergence, 31 g ai/ha, scale 0 to 100 (0 no effect, 100 complete control)
[22] = Postemergence, 250 g ai/ha, scale 0 to 100
[23] = Preemergence, 62 g ai/ha, scale 0 to 100, 0 no effect, 100 complete control
[24] = 31 g ai/ha, scale 0 to 100 (0 no effect, 100 complete control)
[25] = 62 g ai/ha, scale 0 (no effect) to 100 (complete control), 13 to 15 days
[26] = 125 g ai/ha, visual rating after 13 to 15 days, scale 0 (no effect) to 100 (complete control)

O=C1CCCC(O)=C1C(=O)c1cnc(-c2ccccc2)n(-c2ccccc2Br)c1=O [Compound 37]
100: Plant response rating, Surinam Grass [1, 16] | Plant response rating, Bermudagrass [6, 16] | Bermudagrass plant response rating [6, 22] | Plant response rating, Crabgrass, Large [7, 16] | Cupgrass, Woolly plant response rating [9, 22] | Plant response rating, Lambsquarters [11, 16] | Lambsquarters plant response rating [11, 22] | Lambsquarters plant response rating [11, 20] | Chickweed plant response rating ([15]; 250 g ai/ha, scale 0 to 100)
0: Plant response rating, Surinam Grass [1, 19] | Plant response rating, Soybean (soybean (Glycine max); [19]) | Soybean plant response rating (soybean (Glycine max); [20]) | Plant response rating, Nutsedge, Yellow [2, 19] | Plant response rating, Velvetleaf [3, 19] | Plant response rating, Blackgrass [4, 21] | Plant response rating, Blackgrass [4, 17] | Plant response rating, Blackgrass [4, 19] | Plant response rating, Blackgrass [4, 23] | Plant response rating, Johnsongrass [5, 19] | Plant response rating, Johnsongrass [5, 23] | Plant response rating, Crabgrass, Large [7, 19] | Plant response rating, Crabgrass, Large [7, 23] | Plant response rating, Oat, Wild (wild oat (Avena fatua); [19]) | Oat, Wild plant response rating (wild oat (Avena fatua); [20]) | Plant response rating, Ryegrass, Italian [8, 16] | Plant response rating, Ryegrass, Italian [8, 17] | Plant response rating, Ryegrass, Italian [8, 19] | Ryegrass, Italian plant response rating [8, 20] | Plant response rating, Cupgrass, Woolly [9, 19] | Plant response rating, Cupgrass, Woolly [9, 23] | Plant response rating, Ragweed [10, 19] | Plant response rating, Corn (corn (Zea mays); [16]) | Plant response rating, Corn (corn (Zea mays); [21]) | Plant response rating, Corn (corn (Zea mays); [19]) | Plant response rating, Corn (corn (Zea mays); [23]) | Corn plant response rating (corn (Zea mays); [20]) | Plant response rating, Canarygrass [12, 24] | Plant response rating, Barley [13, 24] | Plant response rating, Barley [13, 25] | Plant response rating, Barley [13, 26] | Barley plant response rating ([13]; 250 g ai/ha, scale 0 to 100)
60: Plant response rating, Johnsongrass [5, 18] | Plant response rating, Corn (corn (Zea mays); [18])
65: Plant response rating, Cupgrass, Woolly [9, 17] | Ragweed plant response rating [10, 20]
95: Plant response rating, Soybean (soybean (Glycine max); [18]) | Plant response rating, Velvetleaf [3, 18] | Plant response rating, Ragweed [10, 18] | Plant response rating, Lambsquarters [11, 19]
40: Plant response rating, Johnsongrass [5, 17] | Plant response rating, Oat, Wild (wild oat (Avena fatua); [18])
30: Blackgrass plant response rating [4, 22] | Canarygrass plant response rating ([12]; 250 g ai/ha, scale 0 to 100) | Plant response rating, Windgrass ([14]; 62 g ai/ha, 13 to 15 days)
15: Plant response rating, Nutsedge, Yellow [2, 17] | Plant response rating, Corn (corn (Zea mays); [17])
5: Plant response rating, Blackgrass [4, 18] | Blackgrass plant response rating [4, 20] | Plant response rating, Ryegrass, Italian [8, 18] | Plant response rating, Canarygrass [12, 25]
50: Plant response rating, Windgrass ([14]; 125 g ai/ha, visual rating after 13 to 15 days)
98: Plant response rating, Velvetleaf [3, 16] | Plant response rating, Bermudagrass [6, 18] | Bermudagrass plant response rating [6, 20] | Plant response rating, Ragweed [10, 16] | Plant response rating, Lambsquarters [11, 17] | Plant response rating, Lambsquarters [11, 18] | Plant response rating, Lambsquarters [11, 23]
35: Plant response rating, Soybean (soybean (Glycine max); [16])
80: Plant response rating, Soybean (soybean (Glycine max); [17]) | Plant response rating, Velvetleaf [3, 17] | Plant response rating, Bermudagrass [6, 23] | Plant response rating, Ragweed [10, 17] | Plant response rating, Chickweed [15, 24] | Plant response rating, Chickweed [15, 25]
10: Plant response rating, Blackgrass [4, 16] | Plant response rating, Bermudagrass [6, 19] | Crabgrass, Large plant response rating [7, 20] | Plant response rating, Oat, Wild (wild oat (Avena fatua); [16]) | Plant response rating, Oat, Wild (wild oat (Avena fatua); [17]) | Cupgrass, Woolly plant response rating [9, 20] | Plant response rating, Canarygrass [12, 26]
20: Nutsedge, Yellow plant response rating [2, 20] | Velvetleaf plant response rating [3, 20]
85: Johnsongrass plant response rating [5, 22] | Plant response rating, Bermudagrass [6, 21] | Plant response rating, Crabgrass, Large [7, 18] | Plant response rating, Chickweed [15, 26]
55: Surinam Grass plant response rating [1, 20] | Plant response rating, Cupgrass, Woolly [9, 21]
75: Plant response rating, Surinam Grass [1, 18] | Plant response rating, Crabgrass, Large [7, 17] | Plant response rating, Cupgrass, Woolly [9, 18] | Corn plant response rating (corn (Zea mays); [22])
70: Plant response rating, Surinam Grass [1, 17] | Plant response rating, Crabgrass, Large [7, 21] | Plant response rating, Cupgrass, Woolly [9, 16]
90: Plant response rating, Nutsedge, Yellow [2, 16] | Plant response rating, Johnsongrass [5, 16] | Plant response rating, Bermudagrass [6, 17] | Crabgrass, Large plant response rating [7, 22]
45: Johnsongrass plant response rating [5, 20]
25: Plant response rating, Nutsedge, Yellow [2, 18]
